Laboratory results from PubChem BioAssay AID1259321 (Sanford-Burnham Center for Chemical Genomics, 2017).
Several values for one entry are separate records, joined by “and”; a condition that tells them apart may be missing. Equal values may be shown once. Activity calls are given as the source filed them.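 Rule for the calls: active = half-maximal concentration for changing protein binding to DNA, from the fitted dose curve, below 10 micromolar; inactive = the rest.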

Each compound was assayed against Nuclear receptor subfamily 1 group D member 1 (Homo sapiens) (UniProt P20393) (assay: Rev-erbα–DNA interaction modulators – biochemical, FITC-DNA, fluorescence polarization, dose response (AID 1259321)). Conditions: Rev-erb alpha-FITC-DNA binding.
Nuclear receptor subfamily 1 group D member 1 (Homo sapiens), sequence (P20393 whole entry, looked up): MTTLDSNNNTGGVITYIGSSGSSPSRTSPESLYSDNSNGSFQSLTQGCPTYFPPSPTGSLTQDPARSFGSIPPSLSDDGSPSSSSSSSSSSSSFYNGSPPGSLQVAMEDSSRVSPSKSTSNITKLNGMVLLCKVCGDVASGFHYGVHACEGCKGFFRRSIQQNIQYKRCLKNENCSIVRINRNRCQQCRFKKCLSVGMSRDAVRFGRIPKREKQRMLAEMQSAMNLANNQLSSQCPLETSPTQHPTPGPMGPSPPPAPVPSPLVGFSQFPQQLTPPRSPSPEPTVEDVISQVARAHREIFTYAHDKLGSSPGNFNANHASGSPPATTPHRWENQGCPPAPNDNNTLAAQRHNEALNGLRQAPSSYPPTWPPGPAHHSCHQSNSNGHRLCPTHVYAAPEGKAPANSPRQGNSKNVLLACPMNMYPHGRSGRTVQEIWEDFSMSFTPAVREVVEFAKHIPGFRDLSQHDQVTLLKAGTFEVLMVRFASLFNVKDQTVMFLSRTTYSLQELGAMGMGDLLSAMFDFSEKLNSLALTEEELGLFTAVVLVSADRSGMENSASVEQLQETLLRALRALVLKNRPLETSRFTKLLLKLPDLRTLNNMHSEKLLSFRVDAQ

| Structure (SMILES) | IC50 |
| --- | --- |
| Cc1cc(C)cc(NC(=S)/C(=C(\[O-])c2ccc(Cl)cc2Cl)[n+]2ccc(C(C)(C)C)cc2)c1 | > 40 µM (inactive) |
| OCC[n+]1ccc(/C=C/c2c[nH]c3ccccc23)cc1 | > 40 µM (inactive) |
| Cc1nn(C)c(C)c1N1C(=O)c2cccc3c(N)ccc(c23)C1=O | 1.13 µM |
| Cc1nc(SCC(=O)Nc2ccc(F)cc2)c2oc3ccccc3c2n1 | inactive |
| CCn1c(SCC(=O)c2c[nH]c3ccccc23)nnc1-c1cccs1 | > 40 µM (inactive) |
| COc1cccc(C(=O)n2ccc3ccc(-c4ccc5ccn(C(=O)c6cccc(OC)c6)c5c4)cc32)c1 | 3.26 µM |
| Cn1c(SCC(=O)Nc2cccc(F)c2)nnc1-c1cc2ccccc2o1 | inactive |
| CCN(CC)C(=O)CSc1nc2cc3c(cc2c(=O)n1Cc1ccc(OC)cc1)OCO3 | > 40 µM (inactive) |
| O=C(/C=C/c1cccc2ccccc12)NCCC1=CCCCC1 | > 40 µM (inactive) |
| COc1ccc(C)cc1Nc1nc(-c2ccccc2O)nc2ccccc12 | 4.05 µM |
| COc1ccc(Sc2nc3ccccc3n3c(C(F)(F)F)nnc23)cc1 | 3.01 µM |
| CC(C)Nc1nc(-c2cccnc2)nc(-c2ccc(Cl)cc2)c1C#N | > 40 µM (inactive) |
| CC(=O)Oc1ccc2oc(/C=C/N(C)C)c([N+](=O)[O-])c2c1 | 3.91 µM |
| CCOC(=O)N1CCN(c2ncnc3c2oc2nc(C(C)C)c4c(c23)CCC4)CC1 | 5.3 µM |
| COC(=O)c1ccc(C(=O)OC)c(NC(=O)N2c3ccccc3Sc3ccccc32)c1 | > 40 µM (inactive) |
| O=C(COc1ccc2ccccc2c1Br)NNC(=O)Nc1ccccc1 | 0.778 µM |
| COc1cc2c(cc1OC)-c1cc3ccc4c(c3c[n+]1CC2)OCO4 | inactive |
| Brc1nc(-c2ccccc2)nc(-c2ccccc2)c1Br | > 40 µM (inactive) |
| CC(C)(C#N)Cc1cc(CC(C)(C)C#N)cc(C(C)(C)C)c1 | 4.07 µM |
| Cc1ccc(NC(=O)CSc2nc3ncc(Br)cc3[nH]2)cc1C | > 40 µM (inactive) |
| O=C(CSc1ncnc2c1oc1ccccc12)Nc1ccc2c(c1)OCCO2 | > 40 µM (inactive) |
| O=C(Nc1ccc2c(c1)C(=O)NC2=O)c1ccc2ncsc2c1 | 2.29 µM |
| NS(=O)(=O)c1ccc(CCNC(=O)c2cc(-c3ccccn3)nc3ccc(Br)cc23)cc1 | 3.78 µM |
| COc1ccc(C(=O)Cn2cnc3ccc(Cl)cc3c2=O)cc1F | 5 µM |
| C=CCc1cccc(C2Nc3ccccc3C(=O)N2O)c1O (configuration not stated) | 7.11 µM |
| Cc1ccc2[nH]c(=O)c(CN(C(=O)c3cccs3)c3ccccc3)cc2c1 | 3.81 µM |

| Structure (SMILES) | IC50 |
| --- | --- |
| CCN1/C(=C/C=C/c2oc3ccc(-c4ccccc4)cc3[n+]2CC)Oc2ccc(-c3ccccc3)cc21 | > 40 µM (inactive) |
| CCOC(=O)c1sc(NC(=O)c2ccc(S(=O)(=O)N(CC)CC)cc2)nc1C | inactive |
| Cc1nc(N2CCN(c3ccccn3)CC2)c2c(C)c(C(=O)N3CCN(c4cccc(Cl)c4)CC3)sc2n1 | > 40 µM (inactive) |
| CCOc1ccccc1NC(=O)c1nnn(CC(=O)Nc2cc(C)cc(C)c2)c1N | > 40 µM (inactive) |
| Brc1ccc(Sc2cnc3ccccc3n2)cc1 | inactive |
| CCC[C@H]1[C@@H](N(C)Cc2cccs2)CC[C@@]23CCCN2C(=O)CCC[C@@H]13 | inactive |
| COc1ccc2cc(OCC(=O)NNC(=O)Nc3ccc(F)cc3)ccc2c1 | > 40 µM (inactive) |
| COc1ccc(/C=C2\SC(=S)N(CCCC(=O)NC3CCCC3)C2=O)cc1OC | > 40 µM (inactive) |
| CCn1c(SCC(=O)Nc2cc(C)on2)nc2sc(C)c(C)c2c1=O | 4.73 µM |
| CCOc1ccc(CNC(=O)C2CCN(c3nnc(C)c4c(C)n(-c5ccc(C)cc5)nc34)CC2)cc1 | inactive |
| COc1ccc2cc(C(=O)COC(=O)COc3ccc4c(C)cc(=O)oc4c3)ccc2c1 | 4.26 µM |
| Cc1ccc(-n2c(N)c(C#N)c(-c3ccccc3)c(C#N)c2=O)cc1 | > 40 µM (inactive) |
| Cc1cc(C(F)(F)F)c2c(N)c(C(=O)Nc3cc(C)on3)sc2n1 | inactive |
| COc1ccc(-c2c(C#N)c(SCC(N)=O)nc3c2CCCC3)cc1 | 3.93 µM |
| Cc1ccc2[nH]c(C)c(/C=C/c3cc[n+](C)cc3)c2c1 | 8.6 µM |
| CCc1ccc2n(-c3ccc(OC)cc3)c([S-])c(C(=O)Nc3cc(C)cc(C)c3)[n+]2c1 | 2.71 µM |
| Cc1cc(C)c2nc(SCC(=O)N(C)C3CCS(=O)(=O)C3)cc(C)c2c1 (configuration not stated) | 6.34 µM |
| C[n+]1c2cc(N)ccc2cc2ccc(N)cc21 | 2.68 µM and 8.02 µM |
| Cc1cc2cc(C#N)c(SCC(=O)Nc3nonc3C)nc2cc1C | 1.33 µM |
| CN(C)c1ccc2nc3c(=O)[nH]c(=O)nc-3n(CC(O)C(O)C(O)CO)c2c1 (configuration not stated) | 0.801 µM |
| CCCOc1ccc(C(=O)Nc2nc(C)c(Cc3ccc4c(c3)OCO4)s2)cc1 | inactive |
| Clc1ccc(-c2ccnc(Oc3cc(Cl)ccc3Cl)n2)cc1 | > 40 µM (inactive) |
| COc1ccc(-c2ccc3c(c2)c(Sc2ccccc2)c(-c2cc(OC)cc(OC)c2)n3C)cc1 | 6.89 µM |
| Cc1c(-c2ccc(Cl)cc2)oc(=O)c2c(N)n(-c3ccccc3)nc12 | 3.98 µM |
| O=C(COc1nc2ccccc2nc1N1CCOCC1)N1CCc2ccccc21 | > 40 µM (inactive) |
| O=C(NCc1ccco1)c1ccc(Cn2c(=O)c3ccccc3n(Cc3cccc(F)c3)c2=O)cc1 | 2.43 µM |

| Structure (SMILES) | IC50 |
| --- | --- |
| O=c1c2ccccc2nc2sc3ccccc3n12 | > 40 µM (inactive) |
| COc1ccc(C(=O)Nc2ccc(C(F)(F)F)n(C)c2=O)cc1 | > 40 µM (inactive) |
| COc1ccc(-c2nn(C)c(=O)c3ccccc23)cc1NC(=O)COc1ccccc1 | 7.9 µM |
| CCc1nnc(NC(=O)c2oc3ccc(Br)cc3c2C)s1 | 6.22 µM |
| COc1cc(C(=O)Nc2nc(-c3ccc(Cl)cc3)c(C)s2)ccc1OCC(=O)Nc1ccc(F)cc1 | > 40 µM (inactive) |
| CCNc1ccc2noc3c2c1C(=O)c1ccccc1-3 | > 40 µM (inactive) |
| COc1ccc(C(=O)c2c[nH]c(C(=O)NCc3cccs3)c2)cc1 | > 40 µM (inactive) |
| COc1ccccc1-c1nc(SCC(=O)N(C)c2ccccc2)c2c(=O)n(C)c(=O)n(C)c2n1 | 3.13 µM |
| COc1ccccc1N1C(=O)c2cccc3c(N(C)CCO)ccc(c23)C1=O | 8.2 µM |
| Cc1nc(SCc2nc3c(F)cccc3[nH]2)c2oc3ccccc3c2n1 | > 40 µM (inactive) |
| COC(=O)c1ccc(Cn2ccc3ccc(-c4ccc5ccn(C(=O)c6cccc(OC)c6)c5c4)cc32)cc1 | inactive |
| Cc1nc(-c2ccccc2)nc2[nH]c(-c3ccccc3)cc(=O)c12 | inactive |
| COc1ccc(C(=O)Nc2nnc(Cc3ccccc3)s2)c(OC)c1 | inactive |
| Oc1ccc(Br)cc1C1Nc2ccccc2S1 (configuration not stated) | 6.22 µM |
| CN1C(=O)CSC1=NCC12CC3CC(CC(C3)C1)C2 | 5.32 µM |
| CCCCCc1nc2c(c(=O)c3ccccc3n2C)c(=O)n1Cc1ccc(OC)cc1 | 2.96 µM |
| O=C(COC(=O)c1sc2cc(F)ccc2c1Cl)Nc1ncc(Cl)cc1Cl | > 40 µM (inactive) |
| O=C(Nc1ccnc(-c2cccnc2)n1)c1ccc(Cl)cc1 | 5.12 µM |
| COc1ccc(NC(=O)/C(C#N)=C\c2ccc(N3CCOCC3)o2)cc1 | > 40 µM (inactive) |
| COc1ccccc1-c1ccc2c(c1)C(C)(Cc1cccc(F)c1)C(=O)N2 (configuration not stated) | 7.15 µM |
| CCN(CC(=O)NCc1ccc(Cl)cc1)C(=O)c1ccc2cc(OC)ccc2c1 | 4.52 µM |
| CCOc1ccc(/C(CC)=N/NC(=O)C2(C)CC2(Br)Br)cc1 (configuration not stated) | 7.81 µM |
| COc1ccc(N2C(=O)c3cccc4c(N(C)CCO)ccc(c34)C2=O)cc1 | inactive |
| CCn1cc(/C=C/c2cc[n+](C)cc2)c2ccccc21 | 3.25 µM |
| O=S(=O)(Cc1cc(NCc2ccccc2)nc(-c2ccncc2)n1)c1ccccc1 | > 40 µM (inactive) |
| O=C(c1cccs1)N1C(=O)c2cccc3cccc1c23 | 4.29 µM |

| Structure (SMILES) | IC50 |
| --- | --- |
| CCCCOC(=O)CSc1nc(N)c(C#N)c(-c2ccc(OCC)cc2)c1C#N | inactive |
| Cc1ccc2[nH]cc(S(=O)(=O)c3ccc(C)c(C)c3)c(=O)c2c1 | > 40 µM (inactive) |
| COc1ccc(Cl)cc1-c1cc(C(=O)Nc2ccc(F)cc2)[nH]n1 | 3.13 µM |
| CCOc1ccc(-c2nnc3ccc(SCC(=O)Nc4nc5ccc(C)cc5s4)nn23)cc1 | 7.12 µM |
| COc1ccc(CCNC(=O)CSc2nc(-c3ccc(OC)c(OC)c3)ccc2C#N)cc1 | inactive |
| Cc1ccc(Cl)cc1N1CCN(S(=O)(=O)c2ccc(-c3ccc(=O)[nH]n3)o2)CC1 | inactive |
| COc1ccc(-n2nc(C(=O)NCC(=O)Nc3cccc(Cl)c3)c3ccccc3c2=O)cc1 | inactive |
| Nc1cccc(N2C(=O)c3cccc4c(N)ccc(c34)C2=O)c1 | inactive |
| O=C(CSc1nnc(-c2ccncc2)n1-c1ccc(Cl)cc1)c1ccc(Cl)c(Cl)c1 | 0.278 µM |
| COC(=O)c1ccc(Cn2ccc3ccc(-c4ccc5ccn(C(=O)c6ccccc6C)c5c4)cc32)cc1 | 9.87 µM |
| CC1(C)Cc2c(c(N3CCOCC3)nc3sc4c(NN)ncnc4c23)CS1 | > 40 µM (inactive) |
| O=C(Nc1nc(=O)c2ccccc2s1)c1ccc(Cl)cc1 | > 40 µM (inactive) |
| Cc1ccc(CSc2nc3ccncc3n2CC(=O)Nc2cc(C)cc(C)c2)cc1 | > 40 µM (inactive) |
| NS(=O)(=O)c1ccc(CCNc2nc3c(-c4cccc(F)c4)nnn3c3ccccc23)cc1 | > 40 µM (inactive) |
| C=CCn1c(SCC(=O)Nc2sccc2C#N)nc2sc(C)c(C)c2c1=O | > 40 µM (inactive) |
| COc1ccc(-c2oc3ccccc3c(=O)c2OC(=O)c2ccc(C)cc2)cc1 | inactive |
| CCN(CC)c1ccc(/C=C(/C#N)c2nc3ccccc3[nH]2)c(OC(C)C)c1 | 3.45 µM |
| Cc1cc(-c2nnc3sc(-c4ccc(Cl)cc4Cl)nn23)n[nH]1 | > 40 µM (inactive) |
| COc1ccc(C(=O)Nc2nc3ccc4nc(C)sc4c3s2)cc1 | 9.47 µM |
| CCN(CC)c1ccc(C=C2SC(=S)NC2=O)cc1 | 6.72 µM |
| CC(=O)Oc1ccc(/C=N\NC(=O)c2cc3c(ccc4ccccc43)o2)cc1 | inactive |
| O=C(c1ccccc1)N1N=C(c2ccccc2O)CC1c1ccccc1 (configuration not stated) | 2.32 µM |
| CN1/C(=C\C=C2C(=O)NC(=S)NC2=O)C(C)(C)c2ccccc21 | 6.96 µM |
| COc1ccc(-n2nc(C(=O)NCC(=O)Nc3ccccn3)c3ccccc3c2=O)cc1Cl | 1.28 µM |
